ChEMBL document CHEMBL1141133, “Synthesis of a resveratrol analogue with high ceramide-mediated proapoptotic activity on human breast cancer cells” (J Med Chem, 2005)

Test system: MDA-MB-231
Assay: Inhibitory concentration required for antiproliferative activity against human MDA-MB-231 cells
Format: functional, cell-based

With `COc1ccc2cc(-c3cc(O)cc(O)c3)ccc2c1` the IC50 was 28.3 µM.
In the case of `Oc1ccc(/C=C/c2cc(O)cc(O)c2)cc1` [RESVERATROL], the IC50 is reported as 20.5 µM.
`COc1cc(/C=C/c2ccc(O)cc2)cc(OC)c1` [PTEROSTILBENE] showed an IC50 of 10 µM.
With `Oc1cc(O)cc(-c2ccc3cc(O)ccc3c2)c1` the IC50 was 12.7 µM.
`COc1ccc(/C=C/c2cc(O)cc(O)c2)cc1` [RESVERATROL 4'-METHYL ETHER] was tested, and the IC50 was over 50 µM.
`COc1cc(OC)cc(-c2ccc3cc(OC)ccc3c2)c1` gave an IC50 of 45.1 µM.
For `COc1cc(OC)cc(-c2ccc3cc(O)ccc3c2)c1`, the IC50 was 7.2 µM.
With `COc1ccc(/C=C/c2cc(OC)cc(OC)c2)cc1` [TRISMETHOXYRESVERATROL] the IC50 was 1.2 µM.
